Data taken from US6787318B1, “Assay for evaluating the therapeutic effectiveness of agents in reducing Alzheimer's disease pathology” (Roskamp Research Institute, LLC, priority 1999, dated 2004).
“Also recorded” adds a separate entry of the source.

Columns and labels:
CD40 [1] = test: CD40 expression in Aβ-treated N9 and N60 microglial cells, flow cytometry; format: cell-based, murine
Description: Mononuclear cells from AD patients secrete markedly higher levels of IFN-γ compared to age-matched controls (18).

HAEC = test: Cytotoxicity in HAEC, LDH release assay; format: cell-based, human; details: 500 nM, 48 hours
Method: Previous reports have shown that overexpression of amyloid precursor protein or exogenous addition of Aβ peptides can have cytotoxic effects on cultured endothelial cells.
In order to determine if ligation of endothelial CD40 could result in production of pro-inflammatory cytokines, IL-1β was measured following treatment with IFN-γ or Aβ peptides. […] There was not observe a significant induction of endothelial cell death by LDH release assay between treatment groups during the time course examined by IL-1β release assay (by One-way ANOVA, F(6,41)=0.322, p=0.921), supporting the hypothesis that stimulation of the CD40 pathway in endothelial cells results in an early pro-inflammatory cascade which later promotes cell injury, rather than induce cytotoxicity acutely.

IFN-γR [2] = test: IFN-γR expression in HAEC, cell-ELISA (CELISA) and Western blotting; format: cell-based, human
Method: (§1) In vitro measurement of Aβ-induced changes in expression of the inflammatory cell-surface molecules CD40 and […] in cultured HAEC and HASM cells was performed using a slightly modified ABC-based cell-ELISA (CELISA). […] After PBS washes, 4% neutral formalin solution (Sigma) was used for fixation of the cells. Following quenching of the endogenous peroxidase activity with 3% H2O2 and routine blocking of non-specific binding, the biotinylated specific secondary antibodies against the primary antibodies (goat anti-mouse or anti-rabbit IgG) were applied. The combination of EXTRAVIDIN® Proxidase and the subsequent color reaction was performed strictly according to the manufacturer's instructions in the EXTRAVIDIN® Peroxidase Staining Kit (Sigma). The absorbance of 405 nm was then measured using a microplate reader (SPECTRAmax 250, Molecular Devices). The optical density (O.D.) value for the wells in the absence of the primary antibody for each group was considered as background and subtracted as the blank. In addition, stimulation with IFN-γ for CD40 was included as a positive control in the appropriate plate. Since CD45 is not expressed by endothelial or smooth muscle cells, the assays for expression of CD45 in these Aβ-treated cells were used as negative controls throughout the experiment. In addition, to evaluate the degree of cell death or proliferation in the Aβ-treated, cells, parallel experiments were performed using the MTS (3-(4,5-dimethylthiazol-2-yl)-5-(3-carboxymethoxyphenyl)-2-(4-sulfophenyl)-2H-tetrazolium) cell-proliferation kit (Promega).
(§2) Activation of CD40 signalling can be achieved by stimulation with either CD40L or certain anti-CD40 mAbs. Since synthetic CD40L is not commercially available, one of the anti-CD40 mAbs (clone 3/23), which has been reported to activate CD40 signalling, was used to mimic the effect of interaction of CD40-CD40L. All Aβ-treated cells were incubated with 1 μg/ml anti-CD40 mAb […]) for four hours followed by CELISA.
The total protein was estimated using the Bio-Rad protein assay. An aliquot corresponding to 100 μg of total protein of each sample was separated by SDS/PAGE (polyacrylamide gel electrophoresis) and transferred electrophoretically to PVDF filters. Non-specific binding of antibody was blocked with 5% non-fat dry milk, in 20 mM Tris/HCl, pH 7.5/150 mM NaCl/0.1% Triton X-100. Immunoblotting was carried out with the appropriate antibody followed by alkaline phosphatase-conjugated secondary anti-immunoglobulin antibodies. These were then developed by the chemiluminescence method (Bio-Rad).

IFN-γR [3] = test: IFN-γR expression in HASM cells, cell-ELISA (CELISA); format: cell-based, human; details: Aβ-treated cells, 1 μg/ml mAb, four hours
Method: as §1, §2

CD40 [4] = test: CD40 expression in HAEC, cell-ELISA (CELISA); format: cell-based, human
Method: as §1

IL-1β = test: Human IL-1β release ELISA, HAEC with or without CD40 ligation; format: cell-based
Method: To examine if endothelial CD40 would be functional, cultured HAEC were plated at 5×10^4 cells/well in 6-well tissue culture plates (Nunc-Immuno™ Plate, Denmark) and incubated at 37° C. with human CD40L recombinant protein (CD40L, 0.5 ug/mL, kindly provided by Dr. Jean-Yves Bonnefoy, Glaxo Institute for Molecular Biology, Geneva) in fresh cultured media for eight hours, and cell-free supernatants were collected for IL-1β release assay. The assay for human IL-1β was performed in strict accordance with the manufacturer's instruction using the human Predicta™ IL-1β Kit (Genzyme). Absorbance at 450 nm was measured using a microplate spectrophotometer (SPECTRAmax 250, Molecular Devices, Sunnyvale, Calif.).
A second group of cells was subjected to these same treatments and incubated with CD40L ([…]) for eight hours following the initial 48 hour treatment period. IL-1β release was then quantified using a human IL-1β ELISA kit as described in materials and methods.

CD40 [5] = test: CD40 cell ELISA on cultured HAEC; format: cell-based, human; details: Aβ 50 nM to 10,000 nM; IFN-γ 5 to 500 U/mL; 48 hours
Method: To determine if CD40 expression on cultured HAEC was IFN-γ or Aβ dose-dependent, CD40 cell ELISA assays were performed according to published procedures. Briefly, cultured HAEC were plated at 2×10^4 cells/well in flat-bottom, 96-well tissue culture plates (Nunc-Immuno™ Plate, Denmark). […] Other HAEC were treated with a dose range (5 U/mL to 500 U/mL) of IFN-γ. […] Forty-eight hours post-treatment, plates were fixed overnight at 4° C. in 1% paraformaldehyde diluted in 1×PBS, washed three times with wash buffer (0.5% Tween 20 in 1×PBS), and subsequently incubated with […] of blocking buffer (10% fetal bovine serum in wash buffer) for one hour at 37° C. Cells were then treated with purified anti-human CD40 antibody ([…], PharMingen, Los Angeles, Calif.) in […] of blocking buffer for one hour at 37° C. Plates were washed four times with wash buffer. Biotinylated anti-mouse IgG1 (PharMingen, Los Angeles, Calif.; 1:2,000 dilution in blocking buffer, […]) was added and incubated for one hour at 37° C., followed by the addition of […] of a 1:3,000 dilution of HRP-Streptavidin (ZYMED, San Francisco, Calif.) for thirty minutes at 37° C. Plates were washed 4× with wash buffer and developed for twenty minutes at room temperature using the 3, 3′, 5, 5′-tetramethylbenzidine (TMB) one-step substrate system (DAKO, Carpinteria, Calif.) followed by the addition of 100 μL/well of 2N H2SO4 to stop the reaction. Absorbance was measured at 450 nm using a microplate spectrophotometer (SPECTRAmax 250, Molecular Devices, Sunnyvale, Calif.).

TNF-α = TNF-α release from cultured microglia, TNF-α ELISA; format: cell-based, mice; details: 500 nM, primary cultured microglia

Substance: Aβ1-42: amyloid β peptide 1-42, freshly solubilized
- CD40 expression on cultured microglial cells (CD40 [1]; 250 nM freshly solubilized peptide, N9 and N60 cells, vs control peptide or Aβ-free): significantly induce CD40 expression
- dose dependence of microglial CD40 expression (CD40 [1]; from 50 to 1250 nM, N9 cells): induces microglial CD40 expression in a dose-dependent manner; also recorded: induced microglial CD40 expression in a dose dependent manner
- cell injury, LDH release (HAEC): no significant induction of cell injury
- Aβ-induced IFN-γR expression in HAEC on CD40 ligation (IFN-γR [2]; 1 μg/ml mAb (3/23), four hours): significant effect
- IFN-γR expression in HAEC (IFN-γR [2]; 48 hours): preferentially activates endothelial cells rather than smooth muscle cells
- IFN-γR expression in HASM cells on CD40 ligation by mAb (3/23) (IFN-γR [3]): additive
- CD40 expression in HAEC, dose dependence (CD40 [4]): dose-dependently increase CD40 expression
- lowest effective concentration for CD40 expression (CD40 [4]; HAEC): 100 nM
- IL-1β release following CD40 ligation (IL-1β; 48 hour pre-treatment, then CD40L for eight hours): synergistic effect
- IL-1β release in the absence of CD40L stimulation (IL-1β; Aβ 500 nM, IFN-γ 10 U/mL, 48 hours): not sufficient to elicit IL-1β
- dose dependence of endothelial CD40 (CD40 [5]): marked increase in endothelial CD40 which is dose-dependent
- TNF-α release, peptide alone (TNF-α): does not induce TNF-α release
